Reference: patent publication US7964359B2, “Compositions and methods for the enhancement of soluble amyloid beta oligomer (ADDL) uptake and clearance” (Acumen Pharmaceuticals, Inc., priority 2006, dated 2011)

Columns and labels:
insulin receptor [1] = target: T1, insulin receptor (Homo sapiens, UniProt P06213); assay: Effect of insulin signaling blockers on insulin-stimulated insulin receptor phosphorylation; type: cell-based
Excerpt: These assays are validated via the use of control compounds such as insulin signaling and receptor antagonists and insulin sensitizers.

insulin receptor [2] = target: T1, insulin receptor; assay: ADDL breakdown by cells over expressing human insulin receptor; type: cell-based; design: expressed in transfected cells; details: inhibition of insulin receptor
[3] = test system: cells over-expressing insulin receptor; assay: ADDL uptake and clearance by cells over-expressing insulin receptor; type: cell-based
Excerpt: The amount of oligomeric Aβ peptide assemblies present in cell lysates and culture medium is presented.
Total ADDL levels were higher than other treatment conditions. […] In the presence of insulin, ADDLs were internalized and detected in the center of the intracellular compartment. In the presence of AG1024, the majority of ADDLs were retained in the extracellular compartment.

[4] = test system: cultured cortical neurons; assay: ADDL uptake in cultured cortical neurons (western blot of medium, immunoprecipitation of lysates); type: cell-based
Procedure: Primary cortical cultures were prepared from 1-day old pups and maintained in serum-free neurobasal A medium complemented with 2% B-27, […] L-glutamine and 5 μg/mL bFGF. Synthetic oligomeric Aβ peptide assemblies (100 nM) were applied to cultured cortical neurons and incubated at 37° C. for 30 minutes. […] After separation on SDS-PAGE, the precipitated oligomeric Aβ peptide assemblies were detected on western blots with 6E10 antibody. The bar graph (mean±SE) summarizes data from four independent replicated treatments.
(§1) ADDL Uptake and Clearance by Neurons Occurs Via Insulin Receptor Signaling. […] Extracellular ADDL levels were measured on western blots using a concentrated medium. […] On the other hand, the intracellular ADDLs were detected by immunoprecipitation (FIG. 2B). […] This uptake, however, was prevented by […] (FIG. 2B, lane 5, 6).

hippocampal neurons [5] = assay: ADDL binding to hippocampal neurons after insulin pre-incubation; type: cell-based; details: for prevention of ADDL binding to hippocampal neurons: then 100 nM ADDLs
Excerpt: This possibility seems unlikely, however, given the abundance of insulin receptors in cell bodies of ADDL-exposed neurons.

insulin receptor [6] = target: T2, insulin receptor (Rattus norvegicus, UniProt P15127); assay: Insulin receptor tyrosine phosphorylation in cortical neuronal cultures; type: cell-based; design: endogenous in cells; host or cells: rat primary hippocampal and cortical neuronal cultures; details: cortical neurons
Procedure: (§2) The tyrosine phosphorylation extent of insulin receptor was examined by precipitating insulin receptor with anti-insulin receptor antibody followed by blotting with anti-pTyr antibody on western blots.
(§3) Upon termination of the reaction, the extracellular medium was removed and cell lysates were prepared with a lysis buffer. The tyrosine phosphorylation of insulin receptor was assessed by immunoprecipitation of insulin receptor with a specific anti-insulin receptor antibody, followed by blotting the precipitated receptor with an anti-tyrosine antibody.

hippocampal neurons [7] = assay: ADDL uptake in hippocampal neurons; type: cell-based
Procedure: as §1

hippocampal neurons [8] = assay: MTT cell viability assay after ADDL/insulin treatment; type: cell-based
insulin receptor [9] = target: T2, insulin receptor; assay: Insulin receptor tyrosine phosphorylation in hippocampal neuronal cultures; type: cell-based; design: endogenous in cells; host or cells: rat primary hippocampal and cortical neuronal cultures; details: for tyrosine phosphorylation of the insulin receptor: substance alone; for tyrosine phosphorylation of the insulin receptor / insulin-stimulated insulin receptor tyrosine phosphorylation: hippocampal neurons; for insulin-stimulated insulin receptor tyrosine phosphorylation: ADDLs with 100 nM insulin
Procedure: The insulin receptor was immunoprecipitated by an antibody against the β subunit of the insulin receptor. The precipitated proteins were then detected on separate western blots by an anti-phosphotyrosine antibody and an anti-insulin receptor β subunit antibody, respectively. The ratio of phosphorylated and regular receptors was calculated after densitometry scan and compared among different treatments.
as §2, §3

insulin receptor [10] = target: T1, insulin receptor; assay: Ligand blotting of ADDLs to precipitated insulin receptor; type: binding; design: expressed in transfected cells; details: 100 nM ADDLs; receptors from cells with and without insulin treatment
Excerpt: The cell lysates were subjected to co-immunoprecipitation, in which a specific anti-ADDL antibody (20C2) was used to precipitated ADDLs and proteins that complexed with ADDLs. This was followed by detection of insulin receptor from precipitated proteins on a western blot. […] To test whether the ADDL-insulin receptor interaction is direct, the human insulin receptors from insulin receptor expressing cells with and without insulin treatment were precipitated with an anti-insulin receptor antibody.

Akt [11] = assay: Akt ser473 phosphorylation in cortical neurons; type: cell-based; details: 6 hours
Excerpt: (§4) Equalized total amount of protein from soluble cell lysates were separated on SDS-PAGE, and pAkt ser473 detected on western blots with a specific antibody against pAkt ser473. Identical samples transferred to a separate membrane were detected with an anti-total Akt (rAkt) antibody for internal normalization. The normalized pAkt extent from each experimental condition was converted to percent control and analyzed with one-way ANOVA, **P<0.01.
(§5) In the presence ADDLs, however, there was an increase in pAkt ser473. […] To test whether inhibition of phosphatase 2A (PP2A) causes a similar enhancement of pAkt ser473, the cortical neurons were pre-treated with okadaic acid (OA), a potent PP2A/PP1 inhibitor at a concentration (10 nM) preferentially inhibiting PP2A.

MAP kinase = assay: Insulin-induced MAP kinase phosphorylation; type: cell-based; details: ADDL treatment
Excerpt: Identified herein is a signaling loop in which molecular pathology of AD and type II diabetes can be interconnected.

insulin receptor [12] = target: T2, insulin receptor; assay: Serine phosphorylation of insulin receptor in hippocampal neurons; type: cell-based; design: endogenous in cells; host or cells: rat primary hippocampal and cortical neuronal cultures; details: 150 nM ADDLs, 60 minutes
Procedure: The cell lysates were subjected to immunoprecipitation using an anti-insulin receptor antibody. The precipitated insulin receptors were analyzed by western blot with an anti-phosphoserine antibody to detect the serine phosphorylation extent of insulin receptor (pSer-IR). The pSer-IR extent was normalized with the total amount of precipitated insulin receptor. Each condition was converted to percent control before analyzed one-way ANOVA, **p<0.01.

insulin receptor [13] = target: T2, insulin receptor; assay: Insulin receptor (IRα) immunofluorescence in mature hippocampal neurons after ADDL treatment; type: cell-based; design: endogenous in cells; host or cells: cultures of mature hippocampal neurons; details: 100 nM ADDLs, 30 minutes
Procedure: ADDLs were added to cultures at 100 nM and incubated for 30 minutes to allow for complete binding. […] Insulin receptors, identified using antibodies against the outward-directed alpha sub-unit, also distributed in a punctate manner.
To investigate whether ADDLs cause IR impairment, changes in neuronal IR levels following ADDL treatment were analyzed. […] To detect neuronal surface IR, an antibody recognizing the alpha subunit of IR (IRα) localized on the extracellular membrane layer. Abundant IRα immunoreactivity was detected in cultured hippocampal neurons, which was particularly concentrated on the membrane of soma and dendrites. After treated with 100 nM ADDLs for 30 minutes, however, there was a drastic change in IRα immunostaining pattern with a substantial reduction of IRα from dendrites but an increase in the cell body. […] The increased cytosolic IRα immunoreactivity implicates internalization of the receptor. Loss of IRα occurred specifically to ADDL attacked dendrites. […] Similar to the above experiment, ADDLs were added to cultures at 100 nM and incubated for 30 minutes to allow for complete binding.
The down-regulation of IR is likely due to internalization the receptor by ADDLs.

Akt [14] = assay: Akt ser473 phosphorylation in hippocampal neurons; type: cell-based; details: 1 hour post-ADDL/INS treatment
Excerpt: as §4, §5

IRS1 = IRS1 serine307 phosphorylation in hippocampal neuronal cultures; type: cell-based; details: 150 nM ADDLs, 60 minutes
Excerpt: Equal amount of total proteins from soluble cell lysates from each condition was separated on SDS-PAGE and transferred to nitrocellulose membranes. The phosphorylation extent of IRS1 Ser307 was detected with an anti-IRS1 PSer307 antibody. Identical samples on a separate membrane were blotted with an anti-total amount of IRS1 (rIRS1). The immunoreactivities of pIRS1(Ser307) were normalized with those of rIRS1. Values from each experimental group were converted to percent control and analyzed with one-way ANOVA, ***p<0.0001; **p<0.01.

insulin receptor [15] = target: T1, insulin receptor; details: cited from earlier work
[16] = cells pretreated with inhibitor before ADDL and insulin

T2 sequence (P15127 27-759 limits assumed): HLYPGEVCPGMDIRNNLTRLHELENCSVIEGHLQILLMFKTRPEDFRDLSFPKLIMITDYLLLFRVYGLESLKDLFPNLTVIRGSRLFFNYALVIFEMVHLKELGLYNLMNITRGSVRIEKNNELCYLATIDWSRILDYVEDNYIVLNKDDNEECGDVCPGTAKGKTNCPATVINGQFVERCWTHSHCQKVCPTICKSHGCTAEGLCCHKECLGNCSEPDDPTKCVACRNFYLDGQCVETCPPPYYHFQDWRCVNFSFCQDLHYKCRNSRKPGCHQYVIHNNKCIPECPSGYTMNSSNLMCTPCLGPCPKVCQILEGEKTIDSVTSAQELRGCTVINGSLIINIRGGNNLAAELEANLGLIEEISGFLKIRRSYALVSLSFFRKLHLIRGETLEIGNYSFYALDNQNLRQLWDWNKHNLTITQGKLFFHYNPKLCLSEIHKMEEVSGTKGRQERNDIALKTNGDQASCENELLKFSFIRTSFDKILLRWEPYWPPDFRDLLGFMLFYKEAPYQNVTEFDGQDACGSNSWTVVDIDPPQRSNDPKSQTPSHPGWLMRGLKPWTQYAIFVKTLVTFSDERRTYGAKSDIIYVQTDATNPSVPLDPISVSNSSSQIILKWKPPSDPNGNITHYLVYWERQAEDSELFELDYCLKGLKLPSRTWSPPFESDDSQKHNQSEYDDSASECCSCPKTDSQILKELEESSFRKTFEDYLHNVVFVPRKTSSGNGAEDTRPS
T2 sequence (P15127 764-1383 limits assumed): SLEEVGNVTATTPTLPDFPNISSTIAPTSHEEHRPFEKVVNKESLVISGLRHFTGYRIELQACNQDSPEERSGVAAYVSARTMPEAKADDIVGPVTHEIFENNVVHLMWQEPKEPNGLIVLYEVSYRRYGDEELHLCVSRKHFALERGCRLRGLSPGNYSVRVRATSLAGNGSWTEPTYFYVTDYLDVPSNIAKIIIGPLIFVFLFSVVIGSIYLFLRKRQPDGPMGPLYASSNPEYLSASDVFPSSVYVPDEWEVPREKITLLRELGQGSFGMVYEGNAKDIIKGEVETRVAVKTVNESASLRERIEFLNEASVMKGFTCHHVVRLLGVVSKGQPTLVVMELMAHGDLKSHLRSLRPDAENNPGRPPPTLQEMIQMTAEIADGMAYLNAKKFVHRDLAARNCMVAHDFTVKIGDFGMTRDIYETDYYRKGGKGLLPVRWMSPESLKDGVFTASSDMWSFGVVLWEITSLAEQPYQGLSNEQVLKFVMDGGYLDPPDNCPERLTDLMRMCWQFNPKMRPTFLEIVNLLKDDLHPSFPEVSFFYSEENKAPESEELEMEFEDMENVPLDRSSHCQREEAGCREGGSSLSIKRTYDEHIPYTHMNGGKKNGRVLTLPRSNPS

## CC(C)(C)c1cc(C=C(C#N)C#N)cc(Br)c1O [AG1024, tyrphostin AG1024]
Insulin receptor [1]
  insulin-stimulated insulin receptor phosphorylation: significantly inhibited
Insulin receptor [2]
  ADDLs in the extracellular medium: striking accumulation of ADDLs in the extracellular medium
[3]; [16]
  ADDL aggregates in the extracellular medium: markedly higher amount of ADDL aggregates in the extracellular medium
  insulin-stimulated ADDL internalization: prevented
[4]; 100 nM synthetic ADDLs, 37° C., 30 minutes
  ADDLs in the extracellular medium: striking aggregation of ADDLS
[4]; inhibitor included prior to ADDL treatment
  insulin-induced ADDL uptake into cell lysate: prevented

## insulin
Hippocampal neurons [5]; insulin 1 micromolar, 30 minutes before ADDLs
  ADDL binding and its effects: blocked
Hippocampal neurons [5]; pre-incubation with 100 nM insulin
  prevention of ADDL binding to hippocampal neurons: ~40%
Hippocampal neurons [5]; pre-incubation with 1 μM insulin
  prevention of ADDL binding to hippocampal neurons: ~70%
Insulin receptor [6]; 100 nM insulin
  insulin receptor tyrosine phosphorylation: marked increases in insulin receptor tyrosine phosphorylation
Hippocampal neurons [7]
  ADDL uptake into hippocampal neurons: stimulated a striking ADDL uptake into hippocampal neurons in a clear dose-response manner
Hippocampal neurons [7]; hippocampal neurons
  aggregated ADDLs in the extracellular medium: reduced aggregated ADDLs in the extracellular medium in a dose-response manner
[3]; 100 nM ADDL with insulin, P<0.01
  total amount of ADDLs: significantly reduced
[3]; 100 nM ADDL, 100 nM insulin
  ADDL uptake (ADDL levels in cell lysates up, extracellular medium down): stimulated ADDL uptake
[4]; 100 nM ADDLs, immunoprecipitation with 6E10
  ADDL oligomers in the cell lysate fractions: increase of ADDL oligomers
Hippocampal neurons [8]; ADDLs/insulin for 4 hours
  cell viability (MTT): no apparent toxic effects
Insulin receptor [9]
  tyrosine phosphorylation of the insulin receptor: marked increases in insulin receptor tyrosine phosphorylation
Insulin receptor [9]; listed as Insulin
  tyrosine phosphorylation of the insulin receptor: stimulated an increase in tyrosine phosphorylation

## ADDLs: neurotoxic soluble oligomeric assemblies of Aβ 1-42, prepared from synthetic Aβ 1-42 peptide
Insulin receptor [10]
  binding of ADDL to insulin receptor (ligand blot): strong binding of ADDL to insulin receptor was detected only in the activated but not the control insulin receptor
Insulin receptor [6]; ADDLs 50-150 nM with 100 nM insulin
  insulin-induced insulin receptor tyrosine phosphorylation: significantly inhibited
Akt [11]
  duration of insulin-induced increase in pAkt ser473: significantly prolonged
MAP kinase
  insulin-induced MAP kinase phosphorylation: significantly inhibited
Insulin receptor [12]
  serine phosphorylation of insulin receptor (pSer-IR): increase in serine phosphorylation of insulin receptor
Hippocampal neurons [8]; ADDLs alone, varying treatment duration
  neuronal toxicity (MTT cell viability): cause neuronal toxicity in a treatment duration-dependent
Insulin receptor [9]; ADDL treatment, hippocampal neuronal cultures
  amount of the insulin receptor: reduction in the amount of the insulin receptor
Insulin receptor [9]
  insulin-stimulated insulin receptor tyrosine phosphorylation: significantly inhibited
  tyrosine phosphorylation of the insulin receptor: increase in tyrosine phosphorylation of the insulin receptor
Insulin receptor [9]; listed as ADDL
  insulin-stimulated insulin receptor tyrosine phosphorylation: abolished
Insulin receptor [9]; listed as soluble oligomeric Aβ peptide assemblies
  insulin-stimulated insulin receptor tyrosine phosphorylation: significant inhibition
Insulin receptor [13]
  insulin receptor immunoreactivity in cell bodies vs ADDL-free cells: ~3 fold
Insulin receptor [13]; P<0.01
  dendritic IRα fluorescent intensity: significant loss of IRα immunoreactivity
Insulin receptor [13]; image analysis
  reduction of dendritic insulin receptor immunoreactivity vs ADDL-free cells: ~70%
Akt [14]
  insulin-induced pAkt Ser473: enhancement of the insulin-induced pAkt Ser473
IRS1
  IRS-1 serine 307 phosphorylation: increase in serine phosphorylation of IRS-1

## CC(=O)OCOC(=O)CN(CC(=O)OCOC(C)=O)c1ccccc1OCCOc1ccccc1N(CC(=O)OCOC(C)=O)CC(=O)OCOC(C)=O [BAPTA-AM, 1,2-bis(o-aminophenoxy)ethane-N,N,N′,N′-tetraacetic acid tetra(acetoxymethyl)ester]
Insulin receptor [9]; 100-150 nM ADDLs, neuronal depolarization and glutamate stimulation
  ADDL inhibition of insulin-stimulated IR tyrosine phosphorylation under chelation of intracellular Ca2+: could be rescued

## CN(C)C(=N)N=C(N)N [Metformin]
Insulin receptor [15]
  tyrosine kinase activity of the insulin receptor: enhance the tyrosine kinase activity of the insulin receptor

## C=C1[C@@H](O)[C@@H]2O[C@]3(CC[C@H](/C=C/[C@@H](C)[C@@H]4CC(C)=C[C@@]5(O[C@H](C[C@@](C)(O)C(=O)O)CC[C@H]5O)O4)O3)CC[C@H]2O[C@@H]1[C@@H](O)C[C@H](C)[C@H]1O[C@@]2(CCCCO2)CC[C@H]1C [okadaic acid]
Akt [11]
  duration of insulin-induced increase in pAkt ser473: prolonged the insulin-increased pAkt ser473

## O.O=C([O-])c1ccccc1-c1c2cc(I)c(=O)c(I)c-2oc2c(I)c([O-])c(I)cc12.[Na+].[Na+] [erythrosin B]
Insulin receptor [1]
  insulin-stimulated insulin receptor phosphorylation: significantly inhibited
